Read-outs that look alike come from different tables or passages of the source.
What was measured:
[1] = IV pharmacokinetics in male SD rats; format: in vivo, rat; conditions: for clearance: male, Sprague-Dawley, rat, plasma, iv
Protocol: Pharmacokinetic parameters of some examples were evaluated in male Sprague Dawley (SD) rats after intravenous (IV) and oral (PO) dosing. Male SD rats (5-6 weeks of age) were fasted for 12 hours before administration of the compound of interest. Animals were allowed access to food 2 h after dosing and water was given ad libitum. Except for the compound of Example 13, pharmacokinetic experiments comparing deuterium containing and non-deuterium containing compounds were performed at the same time using the same cohort of animals. The pharmacokinetic properties of the compound of Example 13 were evaluated separately and compared to previously generated data.
For IV dosing, a 0.5 mg/mL solution of the test compound was prepared in a vehicle consisting of 5% DMSO, 5% Cremophore, 90% normal saline. For a 1 mpk dose, 2 mL/kg of this dosing vehicle was administered to each rat by bolus injection into the tail vein. For lower doses, the dosing solution was diluted with the appropriate amount of vehicle. Example 3 was evaluated at 3 mpk by preparing a 1.5 mg/mL solution in the same vehicle and dosing 2 mL/kg. Blood samples from each animal was collected in di-sodium EDTA coated containers at 0.12, 0.25, 0.5, 1.0, 2.0, 4.0, 8.0 and 24.0 hours after dosing. Plasma was separated from the blood samples within 15 minutes following collection and stored at −20±5° C. before analysis.
A standard curve was generated from a stock solution of the test compound with known concentration in methanol. Working solutions having known concentrations ranging from 5-20,000 ng/mL were prepared from the stock solution by dilution with methanol:water (80:20 v/v). 5 uL of the working solutions were added to 45 uL of blank rat plasma to provide standard samples for analysis.
Plasma samples collected from rats after dosing were allowed to reach room temperature. A 50 uL aliquot of each plasma sample and the standard curve plasma samples were treated with 200 uL of acetonitrile containing an internal standard (100 ng/mL; warfarin/diclofenac) and mixed well. The samples were vortexed for 5 minutes followed by centrifugation for 5 minutes at 14000 rpm at 4° C. The supernatant (10 uL) was analyzed by LC-MS/MS (LC: Shimadzu SIL HTc, MS: MDS Sciex API-5500 & 4000 using 75%/25% acetonitrile/0.2% formic acid in Milli-Q water, flow rate: 1.0 mL/min, run time 3 minutes, Atlantis dC18(50×4.6 mm, 3 um; Waters®)) and the concentrations of the test compound in the plasma samples collected from rats at each time point were determined by comparison to the standard curve samples.
Pharmacokinetic parameters were calculated from the plasma concentrations at each time point using Phoenix WinNonlin (Version 7.0) by the non-compartmental analysis (NCA) method. Clearance values are reported as mL/min/kg. AUC values are reported as ng·h/mL.

[2] = tested on: rat, dog, minipig, monkey, and human hepatocytes; assay: In vitro metabolite profile in hepatocytes, summary across species; format: in vitro ADME; conditions: hepatocytes from rat, 10 μM, 120 min
Protocol: Briefly, each test compound (final concentration of 10 μM containing 0.1% DMSO) was incubated with rat, dog, minipig, monkey, or human hepatocytes (final viable cell density of 1×10^6 cells/mL) at 37° C. with 5% CO2 in HI hepatocyte maintenance media (BIOIVT; Catalog #Z99009) for 120 minutes. Reactions were initiated by combining 200 μL of pre-warmed 2× dosing solution containing 20 μM test compound and 0.2% DMSO in HI maintenance media with 200 μL of pre-warmed hepatocyte solution containing 2×10^6 cells/mL in HI maintenance media. Samples were taken at 0 minutes (T0) and 120 minutes (T120) by quenching the reaction with 1200 μL acetonitrile. After quenching, the samples were sonicated for 2 minutes and then centrifuged at 1400 rpm for 5 minutes. A 1400-μL aliquot of the supernatant was evaporated under a stream of N2 until dry. The dried extracts were then reconstituted with 200 μL acetonitrile: H2O (1:3 v/v), vortexed for 2 minutes and centrifuged at 14000 rpm for 5 minutes. A 2-μL aliquot of the supernatant was injected onto a Xevo UPLC-UV-G2-S Q-Tof system (Waters®) with positive-ion electrospray ionization for analysis. […]

clearance ([1]; 0.1 mg/kg, IV 0.1 mpk, ± one standard deviation, read-out: IV clearance 0.1 mpk) | clearance ([1]; 0.3 mg/kg, IV 0.3 mpk, ± one standard deviation, read-out: IV clearance 0.3 mpk) | clearance ([1]; 1 mg/kg, IV 1 mpk, ± one standard deviation, read-out: IV clearance 1 mpk) | total number of metabolites formed [2] | IV clearance 0.1 mpk ([1]; IV 0.1 mpk, ± one standard deviation) | IV clearance 0.3 mpk ([1]; IV 0.3 mpk, ± one standard deviation) | IV clearance 1 mpk ([1]; IV 1 mpk, ± one standard deviation) | SMILES | effect of deuterium substitution on clearance ([1]; IV, versus non-deuterated comparator Example 1-H2)
16 ± 4 mL/min/kg | 12 ± 3 mL/min/kg | 9.5 mL/min/kg | 5 |  |  |  | [2H]C([2H])(Oc1cc(C)n(-c2cc(-c3ccnc(C(C)(C)O)n3)ncc2C)c(=O)c1Cl)c1ncc(F)cc1F (single isomer, unassigned) [Example 1-D2, (P)-3-Chloro-4-((3,5-difluoropyridin-2-yl)methoxy-d2)-2′-(2-(2-hydroxypropan-2-yl)pyrimidin-4-yl)-5′,6-dimethyl-2H-[1,4′-bipyridin]-2-one] | clear and consistent reduction in clearance
 |  |  |  | 24 ± 4 mL/min/kg | 23 ± 7 mL/min/kg | 24 ± 5 mL/min/kg | Cc1cnc(-c2ccnc(C(C)(C)O)n2)cc1-n1c(C)cc(OCc2ncc(F)cc2F)c(Cl)c1=O (atropisomer, axis not shown; (P)) [Example 1-H2, (P)-3-chloro-4-((3,5-difluoropyridin-2-yl)methoxy)-2′-(2-(2-hydroxypropan-2-yl)pyrimidin-4-yl)-5′,6-dimethyl-2H-[1,4′-bipyridin]-2-one] | 

Reference: patent US12403141B2, “Deuterated MK2 pathway inhibitors and methods of using the same” (ACLARIS THERAPEUTICS, INC., priority 2019, dated 2025)
